{
  "source": "paper PMC111503",
  "about": "(Malaria Journal, 2002)",
  "key": {"[1]": {"target": "recombinant PfPP1 (Plasmodium falciparum, UniProt Q8ILV1)", "assay": "biochemical", "assay_type": "biochemical"}, "[2]": {"tested_on": "PP2B", "settings": "cited from earlier work"}, "[3]": {"tested_on": "PP1", "settings": "cited from earlier work"}, "[4]": {"tested_on": "PP2A", "settings": "read-out: characteristic IC50; cited from earlier work"}, "[5]": {"tested_on": "other phosphatases", "settings": "cited from earlier work"}, "[6]": {"settings": "read-out: IC50 for inhibition of PfPP1"}},
  "note": "Like-named read-outs stand apart in the source and are kept apart here.",
  "data": [
    {"compound": "O=P(O)(O)O", "note": "[inorganic orthophosphate]", "values": [
      {"measurement": "IC50", "setting": "[1]; [6]", "value": 10000, "unit": "µM"}
    ]},
    {"compound": "O=P(O)(O)OP(=O)(O)O", "note": "[pyrophosphate]", "values": [
      {"measurement": "IC50", "setting": "[1]; [6]", "value": 90, "unit": "µM"}
    ]},
    {"compound": "C=C1[C@@H](O)[C@@H]2O[C@]3(CC[C@H](/C=C/[C@@H](C)[C@@H]4CC(C)=C[C@@]5(O[C@H](C[C@@](C)(O)C(=O)O)CC[C@H]5O)O4)O3)CC[C@H]2O[C@@H]1[C@@H](O)C[C@H](C)[C@H]1O[C@@]2(CCCCO2)CC[C@H]1C", "note": "[OA, okadaic acid]", "values": [
      {"measurement": "sensitivity of PP2B to toxin", "setting": "[2]", "value": "highly resistant"},
      {"measurement": "IC50", "setting": "[3]; read-out: characteristic IC50", "value": "0.02 to 0.08", "unit": "µM"},
      {"measurement": "IC50", "setting": "[4]", "value": "0.001 to 0.005", "unit": "µM"},
      {"measurement": "IC50", "setting": "[1]", "value": 0.1, "unit": "µM"}
    ]},
    {"compound": "[F-].[Na+]", "note": "[NaF]", "values": [
      {"measurement": "IC50", "setting": "[1]; read-out: IC50 for inhibition of PfPP1, recombinant PfPP1, data not shown", "value": 2500, "unit": "µM"}
    ]},
    {"compound": "CO[C@H]([C@H](O)CC(=O)[C@@H](C)[C@@H](O)CC[C@@H](C)[C@@H]1O[C@]2(CC[C@@H](C)[C@H](CC[C@H](C)C(C)=O)O2)CC[C@@H]1C)[C@H](OC(=O)C[C@@H](O)C1=C(C)C(=O)OC1=O)C(C)C", "note": "[tautomycin]", "values": [
      {"measurement": "effect on PP1 versus PP2A", "setting": "[3]; PP1 and PP2A compared", "value": "nearly equally"},
      {"measurement": "inhibition of other phosphatases", "setting": "[5]", "value": "fails to inhibit"},
      {"measurement": "IC50", "setting": "[1]", "value": 0.0008, "unit": "µM"}
    ]}
  ]
}
